Source: patent US5916925A, “Pharmaceutical composition for treatment of dementia” (Takeda Chemical Industries, Ltd., priority 1996, dated 1999)
Values joined by “and” are separate entries in the source; they are usually repeats but may differ in a detail not shown here. Equal entries are not always repeated. Structures can show the parent of a compound that is named as a salt. Where two headings read alike, the source gives them in different places.

What was measured:
[1] = system: water maze learning deficit in old rats; experiment: Morris water maze learning in old rats; assay type: in vivo, rats of the Fischer 344 strain; conditions: for average latency to find the platform for all trials, vs control group / water maze learning deficit, overall: idebenone 3 mg/kg, Compound A 0.3 mg/kg, oral, or both
Experimental: (§1) The old rats were divided into the following four groups.
(§2) Passive avoidance learning tests were started on day 14 of treatment, and Morris water maze learning tests on day 20 of treatment.
In pretraining which was performed for swimming training and motivation for escaping from water, four trials were performed using a water bath, 80 cm in diameter, in a condition that the platform was visible. From the following day, using a water bath, 120 cm in diameter, learning trials, one session (four trials) per day, were performed with the platform being placed below the water.

[2] = system: passive avoidance learning deficit in old rats; experiment: passive avoidance learning in old rats; assay type: in vivo, rats of the Fischer 344 strain; conditions: idebenone 3 mg/kg, Compound A 0.3 mg/kg, oral, or both; for retention trials, learning deficit: 24 hours after shock loading
Experimental: as §1, §2
The passive avoidance learning test was performed using a chamber consisting of light and dark compartments. […] After a rat moved to the dark compartment, the rat was kept there for about 10 seconds with the door closed. One to two hours after such habituation trials, acquisition trials were performed.
In acquisition trials, after a rat moved to the dark compartment, a foot shock (0.4 mA, 3 seconds) was given through the grid floor. Retention trials were performed 24 hours after acquisition trials.
In each trial, the latency from opening of the slide door till the animal moved to the dark compartment (step-through latency) was measured.

GOT = experiment: hepatic clinical laboratory value GOT in patients; assay type: in vivo, human; conditions: for GOT Level: single patients
Experimental: (§3) In patients with senile dementia of Alzheimer's type, a double-blind placebo controlled multicenter comparative study was conducted under the conditions shown below.
(§4) 451 patients with senile dementia of Alzheimer's type (154 males, 297 females)
(§5) (1) Placebo administration
(§6) Oral administration just after every meal
(§7) Clinical laboratory values

[3] = system: patients with senile dementia of Alzheimer's type; conditions: 90 mg per day per adult; cited from earlier work
[4] = system: patients with senile dementia of Alzheimer's type; experiment: clinical study, safety assessment and dropouts; assay type: in vivo, human; conditions: for subjects dropped out: subjects in this study (groups not separated)
Experimental: as §3, §4, §5
Group 3 (placebo administration), 153 patients (54 males, 99 females; average age 70 years)
as §6, §7

GPT = experiment: hepatic clinical laboratory value GPT in patients; assay type: in vivo, human; conditions: for GPT Level: single patients
Experimental: as §3, §4, §5, §6, §7

[5] = system: patients with senile dementia of Alzheimer's type; experiment: double-blind placebo controlled multicenter study, efficacy parameters (ADAS, CGI, NOSGER, SKT); assay type: in vivo, human
Experimental: as §3, §5, §6

patients = conditions: cited from earlier work
[6] = 6 Months of Administration, 90 mg 3 times daily
[7] = 6 Months of Administration, 120 mg 3 times daily
[8] = 270 or 360 mg per day, 6 months, vs placebo
[9] = Pre-administration (baseline), 90 mg 3 times daily group
[10] = Pre-administration (baseline), 120 mg 3 times daily group
[11] = 90 mg, 120 mg 3-times-a-day and placebo

O=C(CCC1CCN(Cc2ccccc2)CC1)c1ccc2c(c1)NCCCC2 [Compound A, 8-[1-oxo-3-(phenylmetyl)piperidin-4-yl]propyl]-2,3,4,5-tetrahydro-1H-1-benzazepine fumarate]
water maze learning (latency to find the platform) ([1]; day 2 of experiment): significant improvement | water maze learning (latency to find the platform) ([1]; day 3 of experiment): did not differ from the control group | average latency to find the platform for all trials, vs control group [1]: did not show significant shortening of average latency compared with the control group | water maze learning deficit, overall [1]: did not improve water maze learning deficit in old rats | retention trials, learning deficit [2]: tended to show improvements in learning deficit in old rats but the effect was not significant | passive avoidance learning deficit, overall [2]: did not improve passive avoidance learning deficit in old rats

COC1=C(OC)C(=O)C(CCCCCCCCCCO)=C(C)C1=O [idebenone, 6-(10-hydroxydecyl) -2,3-dimethoxy-5-methyl-1,4-benzoquinone]
GOT Level (GOT; [6]): 45 U/L and 38 U/L and 60 U/L and 86 U/L and 49 U/L and 32 U/L and 47 U/L and 26 U/L and 29 U/L | GOT Level (GOT; [7]): 41 U/L and 27 U/L and 28 U/L and 34 U/L and 37 U/L and 23 U/L and 131 U/L | change in GOT level (GOT; [8]): little change in GPT level and GOT level | GOT Level (GOT; [9]): 19 U/L and 27 U/L and 33 U/L and 32 U/L and 15 U/L and 29 U/L and 13 U/L and 22 U/L | GOT Level (GOT; [10]): 23 U/L and 24 U/L and 29 U/L and 21 U/L and 25 U/L | efficacy in senile dementia of Alzheimer's type [3]: effective | incidence and severity of accompanying symptoms ([4]; 90 mg and 120 mg 3-times-a-day vs placebo): No differences were noted among the three groups | subjects dropped out ([4]; by 6 months): 9% | subjects dropped out ([4]; by 12 months): about 15% | elevation of clinical laboratory values (GOT and GPT) ([4]; idebenone administration groups): very low | major objective and subjective symptoms ([4]; three groups together): vertigo, anorexia, sleep disturbance and arthralgia | average latency to find the platform for all trials, vs control group [1]: did not show significant shortening of average latency compared with the control group | water maze learning deficit, overall [1]: did not improve water maze learning deficit in old rats | water maze learning deficit (latency to find the platform) ([1]; latter period of training, idebenone 3 mg/kg oral): slight tendency toward improvement in water maze learning deficit | GPT Level (GPT; [6]): 61 U/L and 54 U/L and 34 U/L and 43 U/L and 26 U/L and 37 U/L and 35 U/L and 50 U/L | GPT Level (GPT; [7]): 26 U/L and 39 U/L and 43 U/L and 55 U/L and 25 U/L and 38 U/L and 60 U/L | change in GPT level (GPT; [8]): little change in GPT level and GOT level | GPT Level (GPT; [9]): 25 U/L and 34 U/L and 36 U/L and 63 U/L and 9 U/L and 14 U/L and 29 U/L and 33 U/L | GPT Level (GPT; [10]): 22 U/L and 14 U/L and 28 U/L and 29 U/L and 37 U/L and 31 U/L | retention trials, learning deficit [2]: tended to show improvements in learning deficit in old rats but the effect was not significant | passive avoidance learning deficit, overall [2]: did not improve passive avoidance learning deficit in old rats | ADAS Sum Score, relief compared with placebo ([5]; 90 mg 3-times-a-day, 6 months): significant relief | ADAS Sum Score, relief compared with placebo ([5]; 90 mg 3-times-a-day, 12 months): significant relief | ADAS Sum Score, dose dependence of effect ([5]; 90 mg and 120 mg 3-times-a-day, 6 and 12 months): dose dependent | ADAS Cognitive Score, differences among groups [5, 11]: significant differences among the three groups were noted, with dose dependency | CGI Global Improvement, differences among groups [5, 11]: significant differences among the three groups were noted, with dose dependency | CGI Severity of Disease, differences among groups [5, 11]: significant differences among the three groups were noted, with dose dependency | NOSGER IADL, differences among groups [5, 11]: significant differences among the three groups were noted, with dose dependency | NOSGER Sum Score, differences among groups [5, 11]: significant differences among the three groups were noted, with dose dependency | SKT, differences among groups [5, 11]: significant differences among the three groups were noted, with dose dependency | ADAS Sum Score, relief compared with placebo ([5]; 120 mg 3-times-a-day, 6 months): significant relief | ADAS Sum Score, relief compared with placebo ([5]; 120 mg 3-times-a-day, 12 months): significant relief | effect in comparison with published clinical data on tacrine ([5]; 270 mg (90 mg, 3-times-a-day)): better effects | effect in comparison with published clinical data on tacrine ([5]; 360 mg (120 mg, 3-times-a-day)): better effects | magnitude of effect, irrespective of assessment method ([5]; 360 mg idebenone administration group): marked effect | symptom progression ([5]; FIGS. 1 to 7): symptom progression was surely suppressed | symptom-relieving and symptom progression-suppressing effects, 12 months vs 6 months ([5]; period exceeding 6 months): greater symptom-relieving and symptom progression-suppressing effects are noted at 12 months than at 6 months

Nc1c2c(nc3ccccc13)CCCC2 [tacrine]
patients who withdrew from the treatment (patients; 30-week administration of tacrine): 74% | subjects dropped out (patients; high-dose tacrine group, by 30 weeks): 74% | subjects dropped out (patients; low-dose tacrine group, until final administration by 30 weeks): 59% | subjects dropped out (patients; moderate-dose tacrine group, by 30 weeks): 71% | dropouts or discontinuations due to adverse reactions (patients; tacrine, study period): a large number of dropouts or discontinuations occurred due to adverse reactions | adverse effects on long-term administration (patients; tacrine): hepatic toxicity
